Publication PMC8371902, “Phase 1 study of M2698, a p70S6K/AKT dual inhibitor, in patients with advanced cancer” (Journal of Hematology & Oncology, 2021)
Like-named read-outs stand apart in the source and are kept apart here.

System: patients with advanced metastatic cancer
Source text: In this phase 1 study, dose escalation was followed by expansion cohorts of once-daily, oral M2698 in continuous 21-day cycles. Primary objectives were to determine the maximum tolerated dose (MTD), dose-limiting toxicities (DLTs), and recommended phase 2 dose (RP2D). Secondary objectives were to assess safety and tolerability, pharmacokinetics (PK, including food effect) and antitumor activity. Pharmacodynamic biomarker assessments were exploratory. Treatment was discontinued if there was disease progression, toxicity or consent withdrawal.
In Part 1, M2698 monotherapy was investigated in a dose escalation with a food effect cohort. In Part 2, M2698 was investigated as monotherapy (expansion cohort) to further characterize safety, tolerability and pharmacokinetics, and assess antitumor activity in PAM + patients without confounding markers (exploratory).
Dose escalation analysis included all patients who experienced a DLT and those who received ≥ 80% of planned M2698 doses in cycle 1 without experiencing a DLT. Safety analysis included all patients who received ≥ 1 dose of M2698. PK analysis included all patients who received ≥ 1 dose of M2698 and had measurable plasma concentrations. Dose proportionality was tested using the power model (linear regression approach on the log -transformed scale).

## NC(=O)c1cccc2c(N[C@H](CN3CCC3)c3ccc(Cl)c(C(F)(F)F)c3)ncnc12 [M2698]
200 mg n=3
  M2698-related TEAE: Delusion: 0
  M2698-related TEAE: Depression: 0
  M2698-related TEAE: Diarrhoea: 0
  M2698-related TEAE: Diarrhoea haemorrhagic: 0
  M2698-related TEAE: Dizziness: 0
  M2698-related TEAE: Dry eye: 0
  M2698-related TEAE: Dry mouth: 0
  M2698-related TEAE: Dysgeusia: 0
  M2698-related TEAE: Dyspepsia: 0
  M2698-related TEAE: Dysphagia: 0
  M2698-related TEAE: Energy increased: 0
  M2698-related TEAE: Erythema: 0
  M2698-related TEAE: Euphoric mood: 0
  M2698-related TEAE: Eye disorders: 0
  M2698-related TEAE: Fatigue: 0
  M2698-related TEAE: Gamma-glutamyltransferase increased: 0
  M2698-related TEAE: Gastrointestinal disorders: 1
  M2698-related TEAE: Gastrooesophageal reflux disease: 0
  M2698-related TEAE: General disorders and administration site conditions: 0
  M2698-related TEAE: Headache: 0
  M2698-related TEAE: Hyperhidrosis: 0
  M2698-related TEAE: Hypokalaemia: 0
  M2698-related TEAE: Hypomagnesaemia: 0
  M2698-related TEAE: Insomnia: 0
  M2698-related TEAE: Investigations: 0
  M2698-related TEAE: Lipase increased: 0
  M2698-related TEAE: Lymphopenia: 0
  M2698-related TEAE: Metabolism and nutrition disorders: 1
  M2698-related TEAE: Mucosal inflammation: 0
  M2698-related TEAE: Nausea: 1
  M2698-related TEAE: Nervous system disorders: 0
  M2698-related TEAE: Nightmare: 0
  M2698-related TEAE: Onychomadesis: 0
  M2698-related TEAE: Paranoia: 0
  M2698-related TEAE: Photosensitivity reaction: 0
  M2698-related TEAE: Posterior reversible encephalopathy syndrome: 0
  M2698-related TEAE: Pruritus generalised: 0
  M2698-related TEAE: Psychiatric disorders: 0
  M2698-related TEAE: Rash: 0
  M2698-related TEAE: Rash maculo-papular: 0
  M2698-related TEAE: Skin and subcutaneous tissue disorders: 0
  M2698-related TEAE: Subjects with at least one event: 1
  M2698-related TEAE: Transaminases increased: 0
  M2698-related TEAE: Tremor: 0
  M2698-related TEAE: Vision blurred: 0
  M2698-related TEAE: Vomiting: 0
  M2698-related TEAE: White blood cell count decreased: 0
240 mg n=17
  M2698-related TEAE: Abnormal dreams: 2
  M2698-related TEAE: Affect lability: 0
  M2698-related TEAE: Alanine aminotransferase increased: 0
  M2698-related TEAE: Amylase increased: 0
  M2698-related TEAE: Anaemia: 0
  M2698-related TEAE: Angina pectoris: 0
  M2698-related TEAE: Anxiety: 0
  M2698-related TEAE: Aphasia: 0
  M2698-related TEAE: Ataxia: 0
  M2698-related TEAE: Blood and lymphatic system disorders: 0
  M2698-related TEAE: Blood creatine phosphokinase increased: 0
  M2698-related TEAE: Blood creatinine increased: 1
  M2698-related TEAE: Cardiac disorders: 0
  M2698-related TEAE: Cognitive disorder: 1
  M2698-related TEAE: Constipation: 0
  M2698-related TEAE: Decreased appetite: 0
  M2698-related TEAE: Delusion: 0
  M2698-related TEAE: Depression: 1
  M2698-related TEAE: Diarrhoea: 2
  M2698-related TEAE: Diarrhoea haemorrhagic: 0
  M2698-related TEAE: Dizziness: 1
  M2698-related TEAE: Dry eye: 0
  M2698-related TEAE: Dry mouth: 0
  M2698-related TEAE: Dysgeusia: 0
  M2698-related TEAE: Dyspepsia: 0
  M2698-related TEAE: Dysphagia: 0
  M2698-related TEAE: Energy increased: 0
  M2698-related TEAE: Erythema: 0
  M2698-related TEAE: Euphoric mood: 0
  M2698-related TEAE: Eye disorders: 0
  M2698-related TEAE: Fatigue: 3
  M2698-related TEAE: Gamma-glutamyltransferase increased: 0
  M2698-related TEAE: Gastrointestinal disorders: 4
  M2698-related TEAE: Gastrooesophageal reflux disease: 1
  M2698-related TEAE: General disorders and administration site conditions: 3
  M2698-related TEAE: Headache: 1
  M2698-related TEAE: Hyperhidrosis: 0
  M2698-related TEAE: Hypokalaemia: 0
  M2698-related TEAE: Hypomagnesaemia: 0
  M2698-related TEAE: Insomnia: 0
  M2698-related TEAE: Investigations: 1
  M2698-related TEAE: Lipase increased: 0
  M2698-related TEAE: Lymphopenia: 0
  M2698-related TEAE: Metabolism and nutrition disorders: 0
  M2698-related TEAE: Mucosal inflammation: 0
  M2698-related TEAE: Nausea: 3
  M2698-related TEAE: Nervous system disorders: 3
  M2698-related TEAE: Nightmare: 0
  M2698-related TEAE: Onychomadesis: 0
  M2698-related TEAE: Paranoia: 0
  M2698-related TEAE: Photosensitivity reaction: 0
  M2698-related TEAE: Posterior reversible encephalopathy syndrome: 0
  M2698-related TEAE: Pruritus generalised: 0
  M2698-related TEAE: Psychiatric disorders: 3
  M2698-related TEAE: Rash: 0
  M2698-related TEAE: Rash maculo-papular: 0
  M2698-related TEAE: Skin and subcutaneous tissue disorders: 0
  M2698-related TEAE: Subjects with at least one event: 9
  M2698-related TEAE: Transaminases increased: 0
  M2698-related TEAE: Tremor: 1
  M2698-related TEAE: Vision blurred: 0
  M2698-related TEAE: Vomiting: 1
  M2698-related TEAE: White blood cell count decreased: 0
320 mg n=12
  M2698-related TEAE: Abnormal dreams: 2
  M2698-related TEAE: Affect lability: 0
  M2698-related TEAE: Alanine aminotransferase increased: 0
  M2698-related TEAE: Amylase increased: 0
  M2698-related TEAE: Anaemia: 1
  M2698-related TEAE: Angina pectoris: 0
  M2698-related TEAE: Anxiety: 1
  M2698-related TEAE: Aphasia: 1
  M2698-related TEAE: Ataxia: 1
  M2698-related TEAE: Blood and lymphatic system disorders: 1
  M2698-related TEAE: Blood creatine phosphokinase increased: 0
  M2698-related TEAE: Blood creatinine increased: 1
  M2698-related TEAE: Cardiac disorders: 0
  M2698-related TEAE: Cognitive disorder: 0
  M2698-related TEAE: Constipation: 2
  M2698-related TEAE: Decreased appetite: 1
  M2698-related TEAE: Delusion: 1
  M2698-related TEAE: Depression: 1
  M2698-related TEAE: Diarrhoea: 4
  M2698-related TEAE: Diarrhoea haemorrhagic: 0
  M2698-related TEAE: Dizziness: 0
  M2698-related TEAE: Dry eye: 0
  M2698-related TEAE: Dry mouth: 0
  M2698-related TEAE: Dysgeusia: 0
  M2698-related TEAE: Dyspepsia: 1
  M2698-related TEAE: Dysphagia: 0
  M2698-related TEAE: Energy increased: 0
  M2698-related TEAE: Erythema: 0
  M2698-related TEAE: Euphoric mood: 0
  M2698-related TEAE: Eye disorders: 0
  M2698-related TEAE: Fatigue: 1
  M2698-related TEAE: Gamma-glutamyltransferase increased: 0
  M2698-related TEAE: Gastrointestinal disorders: 8
  M2698-related TEAE: Gastrooesophageal reflux disease: 0
  M2698-related TEAE: General disorders and administration site conditions: 2
  M2698-related TEAE: Headache: 0
  M2698-related TEAE: Hyperhidrosis: 1
  M2698-related TEAE: Hypokalaemia: 1
  M2698-related TEAE: Hypomagnesaemia: 1
  M2698-related TEAE: Insomnia: 1
  M2698-related TEAE: Investigations: 1
  M2698-related TEAE: Lipase increased: 0
  M2698-related TEAE: Lymphopenia: 0
  M2698-related TEAE: Metabolism and nutrition disorders: 2
  M2698-related TEAE: Mucosal inflammation: 1
  M2698-related TEAE: Nausea: 6
  M2698-related TEAE: Nervous system disorders: 4
  M2698-related TEAE: Nightmare: 0
  M2698-related TEAE: Onychomadesis: 0
  M2698-related TEAE: Paranoia: 1
  M2698-related TEAE: Photosensitivity reaction: 1
  M2698-related TEAE: Posterior reversible encephalopathy syndrome: 0
  M2698-related TEAE: Pruritus generalised: 1
  M2698-related TEAE: Psychiatric disorders: 3
  M2698-related TEAE: Rash: 0
  M2698-related TEAE: Rash maculo-papular: 0
  M2698-related TEAE: Skin and subcutaneous tissue disorders: 3
  M2698-related TEAE: Subjects with at least one event: 9
  M2698-related TEAE: Transaminases increased: 0
  M2698-related TEAE: Tremor: 3
  M2698-related TEAE: Vision blurred: 0
  M2698-related TEAE: Vomiting: 0
  M2698-related TEAE: White blood cell count decreased: 0
380 mg n=4
  M2698-related TEAE: Abnormal dreams: 0
  M2698-related TEAE: Affect lability: 0
  M2698-related TEAE: Alanine aminotransferase increased: 0
  M2698-related TEAE: Amylase increased: 0
  M2698-related TEAE: Anaemia: 0
  M2698-related TEAE: Angina pectoris: 0
  M2698-related TEAE: Anxiety: 0
  M2698-related TEAE: Aphasia: 0
  M2698-related TEAE: Ataxia: 0
  M2698-related TEAE: Blood and lymphatic system disorders: 0
  M2698-related TEAE: Blood creatine phosphokinase increased: 1
  M2698-related TEAE: Blood creatinine increased: 0
  M2698-related TEAE: Cardiac disorders: 0
  M2698-related TEAE: Cognitive disorder: 0
  M2698-related TEAE: Constipation: 0
  M2698-related TEAE: Decreased appetite: 0
  M2698-related TEAE: Delusion: 0
  M2698-related TEAE: Depression: 0
  M2698-related TEAE: Diarrhoea: 0
  M2698-related TEAE: Diarrhoea haemorrhagic: 1
  M2698-related TEAE: Dizziness: 0
  M2698-related TEAE: Dry eye: 0
  M2698-related TEAE: Dry mouth: 0
  M2698-related TEAE: Dysgeusia: 0
  M2698-related TEAE: Dyspepsia: 0
